Reference: patent US20230014181A1, “CULTURE SYSTEM AND METHODS FOR IMPROVED MODELING OF NEUROLOGICAL CONDITIONS” (Genentech, Inc., priority 2021, published 2023)
Counter-ions that a name gives are not always drawn. Like-named read-outs stand apart in the source and are kept apart here.

Columns and labels:
[1] = tested on: human iPSC neurons, astrocytes and microglia treated with 5 μM sAβ42s; test: Focused small molecule screen, triple culture (neuron, astrocyte, microglia), rescue from sAβ42s toxicity; format: cell-based; settings: for percent rescue from sAβ42s toxicity at 0.78 µM: Homo sapiens, iPSC
In short: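 A hit was any compound giving ≥30% rescue of dendrite area (MAP2), synapse count, CUX2 cell count or axon area when dosed against 5 μM sAβ42s toxicity. Testing used iPSC-derived double (neuron/astrocyte) or triple (plus microglia) cultures, at four concentrations of 50, 25, 12.5 and 6.25 μM for double and 50, 12.5, 3.1 and 0.78 μM for triple cultures.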

[2] = tested on: human iPSC neurons and astrocytes treated with 5 μM sAβ42s; test: Focused small molecule screen, double culture (neuron, astrocyte), rescue from sAβ42s toxicity, high content imaging; format: cell-based; settings: double culture, 5 μM sAβ42s; for percent rescue from sAβ42s toxicity at 25 µM / percent rescue from sAβ42s toxicity at 50 µM: Homo sapiens, iPSC
Protocol: FIGS. 11A-11D show synapse % rescue versus MAP2% rescue (FIGS. 11A-11B) and beta III tubulin % rescue versus MAP2% rescue (FIGS. 11C-11D), in neurons and astrocytes (FIGS. 11A and 11C) or neurons, astrocytes, and microglia (FIGS. 11B and 11D) treated with 5 μM sAβ42s and small molecules from a focused screen of known neuroprotective agents at multiple concentrations (50 μM, 25 μM, 12.5 μM and 6.25 μM (double culture), 50 μM, 12.5 μM, 3.1 μM and 0.78 μM (triple culture). Small molecules that prevented toxicity in dendrites (MAP2), synapses (Synapsin 1/2), cell count (CUX2), or axons ([…]) at or above 30% were considered hits (red dotted line).
Neurons from both NSC lines were evaluated by immunofluorescence staining. Briefly, cells were fixed with 4% PFA and 4% sucrose at room temperature for 20 minutes using Bravo automation. Fixed cells were then washed 2 times with PBS using Biotek 406 microplate washer (Beckman Coulter), followed by permeabilization and blocking by incubation with a solution containing 1×PBS, 0.1% Triton X-100, 2% donkey serum, and 1% BSA at room temperature for 30 minutes. Blocking solution was removed and cells were incubated with primary antibodies in blocking solution overnight at 4° C. After washing 6 times with PBS on Biotek 406 cell plate washer (Beckman Coulter), cells were then incubated with fluorophore-conjugated secondary antibodies for 1 hour at room temperature in the dark to avoid photobleaching. Cells were then washed 6 more times in with PBS before imaging. Fluorescent images were captured using IN Cell 6000 confocal microscope (GE Healthcare Life Sciences). The image analysis was performed with IN Cell 6000 analysis software.
Prior to experimentation, media volume in wells containing neurons was equalized with liquid handling automation (Bravo) in order to ensure precise control of concentrations. All Aβ42 oligomers, anti-Aβ, small molecules, inflammatory cytokines were prepared at 10× concentration and added to Neuronal Culture Media at an appropriate volume. For the repeated dosing experiments, the media were refreshed 50% at each dosing first, before adding Aβ42 oligomers, and/or anti-Aβ antibody at the specified final concentration.
In double (neuron, astrocyte) and triple (neuron, astrocyte, microglia) cultures, each small molecule listed in Table 1 was tested in the AD model paradigm at up to four concentrations. Molecules that characterized ≥30% rescue in any of the four measurements of dendrites area (MAP2), synapses count (synapsin 1/2), or cell count (CUX2), or axon area (Beta III Tubulin; “BT3”)) were classified as hits (FIGS. 11A-11D, Table 2, and Table 3).

COc1cccc2c1C(=O)c1c(O)c3c(c(O)c1C2=O)C[C@@](O)(C(C)=O)C[C@@H]3O[C@H]1C[C@H](N)[C@H](O)[C@H](C)O1 [Daunorubicin hydrochloride]
percent rescue from sAβ42s toxicity at 0.78 µM ([1]; 0.78 μM compound, read-out: % B3T rescue): 68%
percent rescue from sAβ42s toxicity at 0.78 µM ([1]; 0.78 μM compound, read-out: % MAP2 rescue): 74%
percent rescue from sAβ42s toxicity at 0.78 µM ([1]; 0.78 μM compound, read-out: % Synapse rescue): 52%
percent rescue from sAβ42s toxicity at 25 µM ([2]; 25 μM compound, read-out: % B3T rescue): 73%
percent rescue from sAβ42s toxicity at 25 µM ([2]; 25 μM compound, read-out: % Cux2 rescue): -23%
percent rescue from sAβ42s toxicity at 25 µM ([2]; 25 μM compound, read-out: % MAP2 rescue): -122%
percent rescue from sAβ42s toxicity at 25 µM ([2]; 25 μM compound, read-out: % Synapse rescue): -27%
percent rescue from sAβ42s toxicity at 50 µM ([2]; 50 μM compound, read-out: % B3T rescue): 101%
percent rescue from sAβ42s toxicity at 50 µM ([2]; 50 μM compound, read-out: % Cux2 rescue): -39%
percent rescue from sAβ42s toxicity at 50 µM ([2]; 50 μM compound, read-out: % MAP2 rescue): -124%
percent rescue from sAβ42s toxicity at 50 µM ([2]; 50 μM compound, read-out: % Synapse rescue): -27%

Cc1ccc2c(c1)C(=O)[C@]1(O)CCN(c3ccccc3)C1=N2 [(S)-(−)-Blebbistatin]
% B3T rescue ([1]; 50.00 μM compound): 36%
% MAP2 rescue ([1]; 50.00 μM compound): 24%
% Synapse rescue ([1]; 50.00 μM compound): 20%
% B3T rescue ([2]; 6.25 μM compound): 41%
% Cux2 rescue ([2]; 6.25 μM compound): 10%
% MAP2 rescue ([2]; 6.25 μM compound): 21%
% Synapse rescue ([2]; 6.25 μM compound): 19%
% B3T rescue ([2]; 12.5 μM compound): 34%
% Cux2 rescue ([2]; 12.5 μM compound): 3%
% MAP2 rescue ([2]; 12.5 μM compound): 25%
% Synapse rescue ([2]; 12.5 μM compound): 15%
% B3T rescue ([2]; 25 μM compound): 38%
% Cux2 rescue ([2]; 25 μM compound): 5%
% MAP2 rescue ([2]; 25 μM compound): 34%
% Synapse rescue ([2]; 25 μM compound): 13%
% B3T rescue ([2]; 50 μM compound): 49%
% Cux2 rescue ([2]; 50 μM compound): 23%
% MAP2 rescue ([2]; 50 μM compound): 34%
% Synapse rescue ([2]; 50 μM compound): 12%

Cc1ccc(S(=O)(=O)/C=C/C#N)cc1 [BAY 11-7082]
% B3T rescue ([1]; 50.00 μM compound): 44%
% MAP2 rescue ([1]; 50.00 μM compound): 21%
% Synapse rescue ([1]; 50.00 μM compound): −1%
% B3T rescue ([2]; 6.25 μM compound): 38%
% Cux2 rescue ([2]; 6.25 μM compound): 70%
% MAP2 rescue ([2]; 6.25 μM compound): 34%
% Synapse rescue ([2]; 6.25 μM compound): −2%
% B3T rescue ([2]; 12.5 μM compound): 31%
% Cux2 rescue ([2]; 12.5 μM compound): 85%
% MAP2 rescue ([2]; 12.5 μM compound): 36%
% Synapse rescue ([2]; 12.5 μM compound): −3%
% B3T rescue ([2]; 25 μM compound): 14%
% Cux2 rescue ([2]; 25 μM compound): 82%
% MAP2 rescue ([2]; 25 μM compound): 17%
% Synapse rescue ([2]; 25 μM compound): −13%

O=C1Nc2ccc3ncsc3c2/C1=C/Nc1ccc(S(=O)(=O)Nc2ccccn2)cc1 [GW8510]
% B3T rescue ([1]; 0.78 μM compound): 45%
% MAP2 rescue ([1]; 0.78 μM compound): −4%
% Synapse rescue ([1]; 0.78 μM compound): 8%
% B3T rescue ([1]; 3.13 μM compound): 70%
% MAP2 rescue ([1]; 3.13 μM compound): 15%
% Synapse rescue ([1]; 3.13 μM compound): 25%
% B3T rescue ([1]; 12.50 μM compound): 68%
% MAP2 rescue ([1]; 12.50 μM compound): 28%
% Synapse rescue ([1]; 12.50 μM compound): 32%
% B3T rescue ([1]; 50.00 μM compound): 63%
% MAP2 rescue ([1]; 50.00 μM compound): −8%
% Synapse rescue ([1]; 50.00 μM compound): −15%
% B3T rescue ([2]; 6.25 μM compound): 32%
% Cux2 rescue ([2]; 6.25 μM compound): −1%
% MAP2 rescue ([2]; 6.25 μM compound): 48%
% Synapse rescue ([2]; 6.25 μM compound): 52%
% B3T rescue ([2]; 12.5 μM compound): 20%
% Cux2 rescue ([2]; 12.5 μM compound): 16%
% MAP2 rescue ([2]; 12.5 μM compound): 37%
% Synapse rescue ([2]; 12.5 μM compound): 38%
% B3T rescue ([2]; 25 μM compound): 31%
% Cux2 rescue ([2]; 25 μM compound): −18%
% MAP2 rescue ([2]; 25 μM compound): 37%
% Synapse rescue ([2]; 25 μM compound): 38%
% B3T rescue ([2]; 50 μM compound): 47%
% Cux2 rescue ([2]; 50 μM compound): −22%
% MAP2 rescue ([2]; 50 μM compound): 52%
% Synapse rescue ([2]; 50 μM compound): 49%
